From patent US20060263802A1 (priority 2003, published 2006)
Entries after “also recorded” stand apart in the source; their conditions may differ.

Tests used:
Assay type in all cases: binding
[1] = system: human monoclonal antibody CRJB
[2] = system: human monoclonal antibody CR57
[3] = system: human monoclonal antibody CR57; remark: listed apart in the source
[4] = system: human monoclonal antibody CRJB; remark: listed apart in the source
[5] = system: human monoclonal antibody CRJA
[6] = system: human monoclonal antibody CRJA; remark: listed apart in the source

Sequence	Binding of CRJB to linear peptide (PEPSCAN-ELISA signal) [1]	Binding of CR57 to linear peptide (PEPSCAN-ELISA signal) [2]	Binding of CR57 (10 μg/ml) to looped/cyclic peptide (PEPSCAN-ELISA) [3]	Binding of CRJB (10 μg/ml) to looped/cyclic peptide (PEPSCAN-ELISA) [4]	Binding of CRJA to linear peptide (PEPSCAN-ELISA signal) [5]	Binding of CRJA (10 μg/ml) to looped/cyclic peptide (PEPSCAN-ELISA) [6]	Binding of CR57 (10 μg/ml) to looped/cyclic peptide (PEPSCAN-ELISA signal) [3]	Binding of CRJB (10 μg/ml) to looped/cyclic peptide (PEPSCAN-ELISA signal) [4]	Binding of CRJA (10 μg/ml) to looped/cyclic peptide (PEPSCAN-ELISA signal) [6]	binding of antibody CR57 to looped/cyclic peptide (PEPSCAN OD) [3]	binding of antibody CRJB to looped/cyclic peptide (PEPSCAN OD) [4]	binding of antibody CRJA to looped/cyclic peptide (PEPSCAN OD) [6]	binding of antibody CRJB to linear peptide (PEPSCAN OD) [1]	binding of antibody CR57 to linear peptide (PEPSCAN OD) [2]	binding of antibody CRJA to linear peptide (PEPSCAN OD) [5]
VLIPEMQSSLLQQHM	104	92	114	85	78	92	–	–	–	–	–	–	–	–	–
VNGVFFNGIILGPDG	116	68	90	96	94	78	–	–	–	–	–	–	–	–	–
VNLHDFRSDEIEHLV	129	83	97	56	103	84	–	–	–	–	–	–	–	–	–
VPGFGKAYTIFNKTL	114	58	74	42	96	87	–	–	–	–	–	–	–	–	–
VRKREECLDALESIM	181	58	105	66	111	101	–	–	–	–	–	–	–	–	–
VRTWNEILPSKGCLR	124	90	121	98	105	114	–	–	–	–	–	–	–	–	–
VSFRRLSHLRKLVPG	111	90	141	94	55	99	–	–	–	–	–	–	–	–	–
VSSTYCSTNHDYTIW	107	78	–	–	80	–	89	61	88	–	–	–	–	–	–
VTEAENYTNFVGYVT	90	79	–	–	79	–	84	80	97	–	–	–	–	–	–
VTTTFKRKHFRPTPD	105	79	–	–	77	–	101	83	89	–	–	–	–	–	–
VVEDEGCTNLSGFSY	107	73	–	–	63	–	79	66	68	–	–	–	–	–	–
VVEELVRKREECLDA	108	62	30	5	90	59	–	–	–	–	–	–	–	–	–
VVTEAENYTNFVGYV	106	87	–	–	90	–	80	62	58	–	–	–	–	–	–
WCPPDQLVNLHDFRS	119	101	105	106	114	111	–	–	–	–	–	–	–	–	–
WKMAGDPRYEESLHN	101	69	–	–	86	–	96	77	90	–	–	–	–	–	–
WLRTVKTTKESLVII	104	41	–	–	85	–	55	78	78	–	–	–	–	–	–
WMPENPRLGMSCDIF	113	88	–	–	97	–	199	206	164	clearly bound	display reactivity; also recorded: clearly bound	–	–	–	–
WNEILPSKGCLRVGG	136	102	112	98	98	96	–	–	–	–	–	–	–	–	–
WSPIDIHHLSCPNNL	106	80	–	–	83	–	89	92	151	–	–	–	–	–	–
YCSTNHDYTIWMPEN	92	47	–	–	76	–	65	71	468	–	–	clearly bound	–	–	–
YDRSLHSRVFPSGKC	818	364	–	–	1027	–	112	72	86	–	–	–	clearly bound	bound	clearly bound
YEESLHNPYPDYRWL	106	58	–	–	87	–	98	50	84	–	–	–	–	–	–
YILAIKMNGFTCTGV	107	47	–	–	45	–	55	49	45	–	–	–	–	–	–
YKSLKGACKLKLCGV	112	80	96	82	79	71	–	–	–	–	–	–	–	–	–
YKSVRTWNEILPSKG	137	66	117	94	113	132	–	–	–	–	–	–	–	–	–
YMELKVGYILAIKMN	114	78	–	–	96	–	93	83	76	–	–	–	–	–	–
YNWKMAGDPRYEESL	118	83	–	–	110	–	89	89	98	–	–	–	–	–	–
YPDYRWLRTVKTTKE	97	72	–	–	88	–	88	73	92	–	–	–	–	–	–
YRWLRTVKTTKESLV	117	46	–	–	68	–	69	70	58	–	–	–	–	–	–
